The values that follow come from ChEMBL document CHEMBL1156482, “Molecular mechanism of action of monocyclam versus bicyclam non-peptide antagonists in the CXCR4 chemokine receptor” (J Biol Chem, 2007).

The subject of experiment [1] is C-X-C chemokine receptor type 4 (Homo sapiens), P61073 [D182A]. In words: (§1) Displacement of [125I]12G5 antibody from extracellular loop 2 of human CXCR4 D182A mutant expressed in COS7 cells. The format is cell-based. The note with it: COS-7.
The target in experiment [2] is C-X-C chemokine receptor type 4 (Homo sapiens, UniProt P61073, D182A). Described as §1. The format is cell-based, COS-7.
C-X-C chemokine receptor type 4 (Homo sapiens, UniProt P61073, D182A), sequence (P61073 whole entry D182A, the tested form may be a part): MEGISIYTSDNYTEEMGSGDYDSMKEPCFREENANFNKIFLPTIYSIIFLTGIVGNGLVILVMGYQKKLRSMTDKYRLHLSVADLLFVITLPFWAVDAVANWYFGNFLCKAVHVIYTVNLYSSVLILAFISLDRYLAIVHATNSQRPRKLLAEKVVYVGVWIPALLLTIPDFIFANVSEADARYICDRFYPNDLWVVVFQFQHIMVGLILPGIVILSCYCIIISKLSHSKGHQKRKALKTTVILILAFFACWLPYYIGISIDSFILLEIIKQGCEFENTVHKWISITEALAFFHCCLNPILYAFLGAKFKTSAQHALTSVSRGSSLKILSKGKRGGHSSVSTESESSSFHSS
For experiment [3], the system named is C-X-C chemokine receptor type 4 (Homo sapiens), P61073 [H203A]. Description: (§2) Displacement of [125I]12G5 antibody from transmembrane domain 5 of human CXCR4 H203A mutant expressed in COS7 cells. It counts as cell-based. The note with it: COS-7. (In general: In a radioligand displacement assay an active substance lowers the binding of a labelled ligand.)
C-X-C chemokine receptor type 4 (Homo sapiens), P61073 [H203A], sequence (P61073 whole entry H203A, the tested form may be a part): as the sequence (P61073 whole entry D182A, the tested form may be a part) above, with A182D, H203A counted along it
In experiment [4] the target is C-X-C chemokine receptor type 4 (Homo sapiens, UniProt P61073, H203A). Described as §2. The format is cell-based, COS-7.
C-X-C chemokine receptor type 4 (Homo sapiens, UniProt P61073, H203A), sequence (P61073 whole entry H203A, the tested form may be a part): as the sequence (P61073 whole entry D182A, the tested form may be a part) above, with A182D, H203A counted along it
Experiment [5] concerns C-X-C chemokine receptor type 4 (Homo sapiens), P61073 [Y256A]. Description: (§3) Displacement of [125I]12G5 antibody from transmembrane domain 6 of human CXCR4 Y256A mutant expressed in COS7 cells. It counts as cell-based. Particulars: COS-7.
C-X-C chemokine receptor type 4 (Homo sapiens), P61073 [Y256A], sequence (P61073 whole entry Y256A, the tested form may be a part): as the sequence (P61073 whole entry D182A, the tested form may be a part) above, with A182D, Y256A counted along it
The target of experiment [6] is C-X-C chemokine receptor type 4 (Homo sapiens, UniProt P61073, Y256A). The description is as §3. It counts as cell-based, COS-7.
C-X-C chemokine receptor type 4 (Homo sapiens, UniProt P61073, Y256A), sequence (P61073 whole entry Y256A, the tested form may be a part): as the sequence (P61073 whole entry D182A, the tested form may be a part) above, with A182D, Y256A counted along it
In experiment [7] the test system is C-X-C chemokine receptor type 4 (Homo sapiens), P61073 [S263A]. Description: (§4) Displacement of [125I]12G5 antibody from transmembrane domain 6 of human CXCR4 S263A mutant expressed in COS7 cells. It counts as cell-based. The note with it: COS-7.
C-X-C chemokine receptor type 4 (Homo sapiens), P61073 [S263A], sequence (P61073 whole entry S263A, the tested form may be a part): as the sequence (P61073 whole entry D182A, the tested form may be a part) above, with A182D, S263A counted along it
The target of experiment [8] is C-X-C chemokine receptor type 4 (Homo sapiens, UniProt P61073, S263A). The experiment is described as §4. It counts as cell-based, COS-7.
C-X-C chemokine receptor type 4 (Homo sapiens, UniProt P61073, S263A), sequence (P61073 whole entry S263A): as the sequence (P61073 whole entry D182A, the tested form may be a part) above, with A182D, S263A counted along it
Experiment [9] deals with C-X-C chemokine receptor type 4 (Homo sapiens, UniProt P61073). Description: Antagonist activity at human wild type CXCR4 expressed in COS7 cells coexpressing G protein Gqi4myr assessed as inhibition of CXCL12-induced phosphatidylinositol turnover. The format is functional, cell-based, COS-7.
C-X-C chemokine receptor type 4 (Homo sapiens, UniProt P61073), sequence (P61073 whole entry): as the sequence (P61073 whole entry D182A, the tested form may be a part) above, with A182D counted along it
The test system of experiment [10] is C-X-C chemokine receptor type 4 (Homo sapiens), P61073 [L120F]. In words: (§5) Antagonist activity at human CXCR4 L120F mutant expressed in COS7 cells coexpressing G protein Gqi4myr assessed as inhibition of CXCL12-induced phosphatidylinositol turnover. Particulars: COS-7. It counts as functional, cell-based.
C-X-C chemokine receptor type 4 (Homo sapiens), P61073 [L120F], sequence (P61073 whole entry L120F): as the sequence (P61073 whole entry D182A, the tested form may be a part) above, with L120F, A182D counted along it
Experiment [11] addresses C-X-C chemokine receptor type 4 (Homo sapiens, UniProt P61073, L120F). The description is as §5. The format is functional, cell-based, COS-7.
Experiment [12] deals with C-X-C chemokine receptor type 4 (Homo sapiens), P61073 [D262N]. In words: (§6) Antagonist activity at human CXCR4 D262N mutant expressed in COS7 cells coexpressing G protein Gqi4myr assessed as inhibition of CXCL12-induced phosphatidylinositol turnover. It counts as functional, cell-based. The note with it: COS-7.
C-X-C chemokine receptor type 4 (Homo sapiens), P61073 [D262N], sequence (P61073 whole entry D262N): as the sequence (P61073 whole entry D182A, the tested form may be a part) above, with A182D, D262N counted along it
Experiment [13] has as its target C-X-C chemokine receptor type 4 (Homo sapiens, UniProt P61073, D262N). The description is as §6. The format is functional, cell-based, COS-7.
The subject of experiment [14] is C-X-C chemokine receptor type 4 (Homo sapiens), P61073 [I284A]. Description: (§7) Antagonist activity at human CXCR4 I284A mutant expressed in COS7 cells coexpressing G protein Gqi4myr assessed as inhibition of CXCL12-induced phosphatidylinositol turnover. The format is functional, cell-based. Particulars: COS-7.
For experiment [15], the target named is C-X-C chemokine receptor type 4 (Homo sapiens, UniProt P61073, I284A). The description is as §7. The format is functional, cell-based, COS-7.
C-X-C chemokine receptor type 4 (Homo sapiens, UniProt P61073, I284A), sequence (P61073 whole entry I284A): as the sequence (P61073 whole entry D182A, the tested form may be a part) above, with A182D, I284A counted along it
For experiment [16], the system named is Human immunodeficiency virus 1. In words: Antiviral activity against HIV1 NL43 infected in U87.CD4 cells expressing human CXCR4 D171N mutant. It counts as functional, organism-based. Particulars: Human immunodeficiency virus 1, NL43, U87.CD4.
The subject of experiment [17] is Human immunodeficiency virus 1. In words: Antiviral activity against HIV1 clinical isolate 10 infected in U87.CD4 cells expressing human CXCR4 D262N mutant. It counts as functional, organism-based. Particulars: Human immunodeficiency virus 1, U87.CD4.
The subject of experiment [18] is Human immunodeficiency virus 1. Description: Antiviral activity against HIV1 NL43 infected in U87.CD4 cells expressing human CXCR4 H281A mutant. It counts as functional, organism-based. Particulars: Human immunodeficiency virus 1, NL43, U87.CD4.

The term Ki denotes a measure of affinity in units of concentration, obtained from inhibition or displacement. By IC50 is commonly meant the concentration at which inhibition is half-maximal. The low end stands for higher potency, the high end for lower potency.

C-X-C chemokine receptor type 4 (Homo sapiens, UniProt P61073, D262N), sequence (P61073 whole entry D262N): as the sequence (P61073 whole entry D182A, the tested form may be a part) above, with A182D, D262N counted along it
C-X-C chemokine receptor type 4 (Homo sapiens, UniProt P61073, L120F), sequence (P61073 whole entry L120F): as the sequence (P61073 whole entry D182A, the tested form may be a part) above, with L120F, A182D counted along it
C-X-C chemokine receptor type 4 (Homo sapiens), P61073 [I284A], sequence (P61073 whole entry I284A): as the sequence (P61073 whole entry D182A, the tested form may be a part) above, with A182D, I284A counted along it
C-X-C chemokine receptor type 4 (Homo sapiens), P61073 [D182A], sequence (P61073 whole entry D182A): as the sequence (P61073 whole entry D182A, the tested form may be a part) above

For `c1ccc(CNCc2ccc(CN3CCCNCCNCCCNCC3)cc2)nc1`, the logKi in [1] was -7.44; in experiment [3], -6.35; in experiment [5] it was -6.5; in [7] it was -6.27. Further, the inhibition constant (Ki) in experiment [2] turned out to be 40 nM; in experiment [4] it was 440 nM; in [6] it was 320 nM; in [8] it was 530 nM; in [9] it was 10 nM; in [11] it was 10 nM. Also, the values for the Ki in experiment [13] and in experiment [15] were 7800 nM and 30 nM, respectively. Also, the logIC50 in experiment [9] (COS-7) is -8.01; in experiment [10], -8.18; in experiment [12], -5.11; in experiment [14], -7.5. In addition, the IC50 in experiment [16] was 164000 nM; in experiment [17], 3820 nM; in experiment [18], over 1100 nM.
